# System: recombinant rabies virus 1088 strain expressing Gaussia Luciferase (GLuc) (1088/GLuc)
# Type: cell-based
# Conditions: read-out: Anti-rabies activity
row,SMILES,IC50 [µM]
1,CC(C)C[C@@H]1[C@H]2CN[C@@]3(C(=O)NCc4ccccc4)[C@@H](C2)CN(Cc2ccc(O)cc2)[C@@H]13 [IB-787],10 to 30
2,CC(C)CCNC(=O)[C@@]12C[C@@H]3CN(Cc4ccccc4)[C@@H]([C@@H]3CN1)[C@H]2Cc1ccccc1 [IF-665],< 5
3,O=C(NCc1ccccc1)[C@@]12C[C@@H]3CN(CC4CCCCC4)[C@@H]([C@@H]3CN1)[C@H]2Cc1ccc(O)cc1 [IF-645],10 to 30
4,CC(C)CN1C[C@H]2C[C@]3(C(=O)NCc4ccc(O)cc4)NC[C@H]2[C@H]1[C@H]3Cc1cccc2ccccc12 [IF-500],10 to 30
5,NC(=O)CCNC(=O)[C@@]12C[C@@H]3CN(Cc4cccc5ccccc45)[C@@H]([C@@H]3CN1)[C@H]2Cc1ccc(O)cc1 [IF-435],< 5
6,N=C(N)NCCCNC(=O)[C@]12NC[C@H]3C[C@H]1CN(CCc1ccccc1)[C@H]2[C@@H]3Cc1cccc2ccccc12 [IB-347],10 to 30
7,CC(C)C[C@@H]1[C@H]2CN[C@@]3(C(=O)NCCc4ccccc4)[C@@H](C2)CN(CC(C)C)[C@@H]13 [IB-495],< 5
8,CC(C)CN1C[C@H]2C[C@]3(C(=O)NCc4cccc5ccccc45)NC[C@H]2[C@H]1[C@H]3Cc1cccc2ccccc12 [IF-778],< 5
9,O=C(NCc1ccccc1)[C@]12NC[C@H]3C[C@H]1CN(CCO)[C@H]2[C@@H]3CCc1ccccc1 [IB-618],< 5
10,CC(C)C[C@@H]1[C@@H]2[C@@H]3CN[C@@]1(C(=O)NCc1ccc(F)cc1)C[C@@H]3CN2Cc1ccccc1 [IF-807],< 5
11,CC(C)C[C@@H]1[C@H]2CN[C@@]3(C(=O)NCc4ccccc4)[C@@H](C2)CN(Cc2ccc(F)cc2)[C@@H]13 [IB-773],< 5
12,Cc1cccc(C[C@@H]2[C@@H]3CN[C@@]4(C(=O)NCc5ccccc5)[C@@H](C3)CN(CC(C)C)[C@@H]24)c1 (relative stereo) [IB-13],10 to 30
13,CCCCCCNC(=O)[C@]12NC[C@H]3C[C@H]1CN(CCO)[C@H]2[C@@H]3CCC(C)C [IB-490],< 5
14,O=C(NCCc1ccccc1)[C@@]12C[C@@H]3CN(Cc4cccc5ccccc45)[C@@H]([C@@H]3CN1)[C@H]2Cc1ccc(O)cc1 [IF-708],< 5
15,CC(C)CCN1C[C@@H]2C[C@@H]3CN[C@]2(C(=O)NCCC(=O)O)[C@@H]1[C@@H]3CC(C)C [IB-611],10 to 30
16,CC(C)CC[C@@H]1[C@H]2CN[C@@]3(C(=O)NCCc4ccccc4)[C@@H](C2)CN(CC(N)=O)[C@@H]13 [IB-89],< 5
17,NC(=O)CCNC(=O)C12NCC3CC1CN(Cc1ccc(F)cc1)C2C3Cc1cccc2ccccc12 (stereo not drawn) [IB-525],10 to 30
18,CCCCCCNC(=O)[C@@]12C[C@@H]3CN(CC4CCCCC4)[C@@H]([C@@H]3CN1)[C@H]2CCCNC(=N)N [IF-260],10 to 30
19,O=C(NCc1ccc(F)cc1)[C@]12NC[C@H]3C[C@H]1CN(CCO)[C@H]2[C@@H]3Cc1cccc2ccccc12 [IB-831],< 5
20,CC(C)CC[C@@H]1[C@@H]2[C@@H]3CN[C@@]1(C(=O)NCCc1ccccc1)C[C@@H]3CN2Cc1ccccc1 [IF-723],10 to 30
21,NC(=O)C[C@@H]1[C@@H]2[C@@H]3CN[C@@]1(C(=O)NCc1ccccc1)C[C@@H]3CN2CC1CCCCC1 [IF-246],10 to 30
22,CC(C)NC(=O)[C@@]12C[C@@H]3CN(Cc4cccc5ccccc45)[C@@H]([C@@H]3CN1)[C@H]2CCc1ccccc1 [IF-789],10 to 30

row,SMILES,IC50 [µM]
1,CC(C)C[C@@H]1[C@@H]2[C@@H]3CN[C@@]1(C(=O)NCc1ccccc1)C[C@@H]3CN2CCc1ccccc1 [IF-639],< 5
2,CC(C)CCC1C2CNC3(C(=O)NCCc4ccccc4)C(C2)CN(CCO)C13 (stereo not drawn) [IB-531],10 to 30
3,O=C(NCCO)[C@@]12C[C@@H]3CN(CC4CCCCC4)[C@@H]([C@@H]3CN1)[C@H]2Cc1ccccc1 [IF-486],10 to 30
4,CC(C)CNC(=O)[C@@]12C[C@@H]3CN(CCc4ccccc4)[C@@H]([C@@H]3CN1)[C@H]2CC(C)C [IF-738],10 to 30
5,CC(C)CCNC(=O)[C@@]12C[C@@H]3CN(CC4CCCCC4)[C@@H]([C@@H]3CN1)[C@H]2Cc1ccc(O)cc1 [IF-709],10 to 30
6,CCCCCCNC(=O)[C@@]12C[C@@H]3CN(CCc4ccccc4)[C@@H]([C@@H]3CN1)[C@H]2Cc1ccccc1 (relative stereo) [IF-602],10 to 30
7,CC(C)C[C@@H]1[C@H]2CN[C@@]3(C(=O)NCc4cccc5ccccc45)[C@@H](C2)CN(CC(N)=O)[C@@H]13 (relative stereo) [IB-81],10 to 30
8,CC(C)CC1C2C=NC3(C(=O)NCc4ccccc4)C(C2)CN(Cc2ccc(Cl)cc2)C13 (stereo not drawn) [IIB-83],< 5
9,CC(C)CNC(=O)[C@]12NC[C@H]3C[C@H]1CN(CC(C)C)[C@H]2[C@@H]3CCc1ccccc1 [IB-633],< 5
10,Cc1ccc(CNC(=O)[C@@]23C[C@@H]4CN(CC(C)C)[C@@H]([C@@H]4C=N2)[C@H]3Cc2ccccc2)cc1 (relative stereo) [IIF-16],10 to 30
11,CC(C)C[C@@H]1[C@H]2CN[C@@]3(C(=O)NCc4ccc(O)cc4)[C@@H](C2)CN(Cc2ccc(F)cc2)[C@@H]13 [IB-458],10 to 30
12,N=C(N)NCCC[C@@H]1[C@@H]2[C@@H]3CN[C@@]1(C(=O)NCCO)C[C@@H]3CN2Cc1cccc2ccccc12 [IF-239],10 to 30
13,CC(C)CCNC(=O)[C@@]12C[C@@H]3CN(CCO)[C@@H]([C@@H]3CN1)[C@H]2Cc1ccccc1 [IF-656],10 to 30
14,Cc1ccc(CN2C[C@H]3C[C@@]4(C(=O)NCc5ccccc5)[C@H](CC(C)C)[C@@H]2[C@@H]3CN4C(=O)NCc2ccccc2)cc1 [IF-864],10 to 30
15,CC(C)CCNC(=O)[C@@]12C[C@@H]3CN(Cc4ccccc4)[C@@H]([C@@H]3CN1)[C@H]2CC(C)C [IF-691],10 to 30
16,NC(=O)CN1C[C@H]2C[C@]3(C(=O)NCc4cccc5ccccc45)NC[C@H]2[C@H]1[C@H]3Cc1cccc2ccccc12 (relative stereo) [IF-91],< 5
17,CC(C)CC[C@@H]1[C@H]2CN[C@@]3(C(=O)NCc4ccccc4)[C@@H](C2)CN(CC(C)C)[C@@H]13 [IB-875],10 to 30
18,CC(C)CCN1C[C@H]2C[C@]3(C(=O)NCCc4ccccc4)NC[C@H]2[C@H]1[C@H]3Cc1ccc(O)cc1 (relative stereo) [IF-545],10 to 30
19,N=C(N)NCCC[C@@H]1[C@@H]2[C@@H]3CN[C@@]1(C(=O)NCc1ccc(F)cc1)C[C@@H]3CN2Cc1cccc2ccccc12 [IF-245],< 5
20,CC(C)CCN1C[C@@H]2C[C@@H]3CN[C@]2(C(=O)NCCO)[C@@H]1[C@@H]3CCc1ccccc1 [IB-658],10 to 30
21,CC(C)CCNC(=O)[C@]12NC[C@H]3C[C@H]1CN(CC(C)C)[C@H]2[C@@H]3Cc1ccc(O)cc1 [IB-684],10 to 30
22,CC(C)CC[C@@H]1[C@H]2CN[C@@]3(C(=O)NCCC(=O)O)[C@@H](C2)CN(CC2CCCCC2)[C@@H]13 [IB-613],10 to 30

row,SMILES,IC50 [µM]
1,CC(C)CC[C@@H]1[C@H]2CN[C@@]3(C(=O)NCCC(N)=O)[C@@H](C2)CN(Cc2ccccc2)[C@@H]13 [IB-274],10 to 30
2,CC(C)CC[C@@H]1[C@H]2CN[C@@]3(C(=O)NCc4cccc5ccccc45)[C@@H](C2)CN(CCC(=O)O)[C@@H]13 [IB-398],10 to 30
3,CC(C)C[C@@H]1[C@@H]2[C@@H]3CN[C@@]1(C(=O)NCCc1ccccc1)C[C@@H]3CN2Cc1ccc(F)cc1 [IF-714],< 5
4,CC(C)CCNC(=O)[C@@]12C[C@@H]3CN(CC4CCCCC4)[C@@H]([C@@H]3CN1)[C@H]2CC(C)C [IF-659],10 to 30
5,O=C(NCCO)[C@]12NC[C@H]3C[C@H]1CN(Cc1cccc4ccccc14)[C@H]2[C@@H]3Cc1ccc(O)cc1 [IB-459],10 to 30
6,CC(C)NC(=O)[C@@]12C[C@@H]3CN(Cc4cccc5ccccc45)[C@@H]([C@@H]3CN1)[C@H]2Cc1cccc2ccccc12 [IF-596],10 to 30
7,CC(C)CNC(=O)[C@]12NC[C@H]3C[C@H]1CN(CCC(=O)O)[C@H]2[C@@H]3CCc1ccccc1 [IB-430],< 5
8,CCN1C[C@H]2C[C@H]3CN(Cc4ccc(C)cc4)[C@@H]([C@@H]2CC(C)C)[C@]31C(=O)NCc1ccccc1 (relative stereo) [IB-880],< 5
9,CC(C)C[C@@H]1[C@@H]2[C@@H]3CN[C@@]1(C(=O)NCc1ccc(O)cc1)C[C@@H]3CN2Cc1ccc(F)cc1 [IF-482],10 to 30
10,CC(C)C[C@@H]1[C@@H]2[C@@H]3CN[C@@]1(C(=O)NCc1ccccc1)C[C@@H]3CN2Cc1ccc(F)cc1 [IF-650],< 5
11,CC(C)CCC1C2CNC3(C(=O)NCCc4ccccc4)C(C2)CN(Cc2ccc(O)cc2)C13 (stereo not drawn) [IB-544],10 to 30
12,CC(C)CCNC(=O)[C@@]12C[C@@H]3CN(CC(C)C)[C@@H]([C@@H]3CN1)[C@H]2CCc1ccccc1 [IF-673],< 5
13,CC(C)C[C@@H]1[C@H]2CN[C@@]3(C(=O)NCc4cccc5ccccc45)[C@@H](C2)CN(CCC(=O)O)[C@@H]13 [IB-392],10 to 30
14,CC(C)CC[C@@H]1[C@@H]2[C@@H]3CN[C@@]1(C(=O)NCc1ccc(O)cc1)C[C@@H]3CN2Cc1ccc(F)cc1 [IF-479],< 5
15,NC(=O)CN1C[C@@H]2C[C@@H]3CN[C@]2(C(=O)NCc2cccc4ccccc24)[C@@H]1[C@@H]3Cc1ccccc1 (relative stereo) [IB-82],10 to 30
16,CC(C)CNC(=O)[C@]12NC[C@H]3C[C@H]1CN(CC(C)C)[C@H]2[C@@H]3CCCNC(=N)N [IB-187],10 to 30
17,CC(C)CCNC(=O)[C@@]12C[C@@H]3CN(Cc4ccc(F)cc4)[C@@H]([C@@H]3CN1)[C@H]2Cc1ccccc1 (relative stereo) [IF-584],< 5
18,CC(C)CCN1C[C@H]2C[C@]3(C(=O)NCc4ccc(O)cc4)NC[C@H]2[C@H]1[C@H]3CCC(=O)O [IF-445],10 to 30
19,CC(C)CCNC(=O)[C@]12NC[C@H]3C[C@H]1CN(CC(C)C)[C@H]2[C@@H]3CCc1ccccc1 [IB-688],< 5
20,N=C(N)NCCC[C@@H]1[C@@H]2[C@@H]3CN[C@@]1(C(=O)NCc1cccc4ccccc14)C[C@@H]3CN2Cc1ccccc1 [IF-284],10 to 30
21,CC(C)CNC(=O)[C@]12NC[C@@H]3C[C@H]1CN(CC(C)C)[C@H]2[C@@H]3Cc1ccccc1 (relative stereo) [IB-3],10 to 30
22,CC(C)CC[C@@H]1[C@H]2CN[C@@]3(C(=O)NCCO)[C@@H](C2)CN(Cc2ccccc2)[C@@H]13 [IB-680],10 to 30

# Same assay, conditions: read-out: IC50
row,SMILES,IC50 [µM]
1,Cc1cccc(C[C@@H]2[C@@H]3CN[C@@]4(C(=O)NCc5ccccc5)[C@@H](C3)CN(CC(C)C)[C@@H]24)c1 (relative stereo) [IB-13],14.3
2,Cc1ccc(CNC(=O)[C@@]23C[C@@H]4CN(CC(C)C)[C@@H]([C@@H]4C=N2)[C@H]3Cc2ccccc2)cc1 (relative stereo) [IIF-16],28.7
3,CC(C)CNC(=O)[C@]12NC[C@@H]3C[C@H]1CN(CC(C)C)[C@H]2[C@@H]3Cc1ccccc1 (relative stereo) [IB-3],19.6
